From article doi:10.1101/2024.02.20.581179v1, “Regulated mRNA recruitment in dinoflagellates is reflected in hyper-variable mRNA spliced leaders and novel eIF4Es” (biorxiv, 2024)

What was measured:
Type in all cases: binding
eIF4E-1d1 [1] = target: T1, eIF4E-1d1 (Amphidinium carterae, UniProt A0A0X9VJN7); experiment: SPR, Biacore T-200, steady state
T1 construct: gene eIF4E-1d; N-terminal GST tag (TEV site), E. coli, GST-fusion dimer, tag kept (SPR); S-tagged in vitro translated protein in bead assay
T1 sequence (A0A0X9VJN7 1-239): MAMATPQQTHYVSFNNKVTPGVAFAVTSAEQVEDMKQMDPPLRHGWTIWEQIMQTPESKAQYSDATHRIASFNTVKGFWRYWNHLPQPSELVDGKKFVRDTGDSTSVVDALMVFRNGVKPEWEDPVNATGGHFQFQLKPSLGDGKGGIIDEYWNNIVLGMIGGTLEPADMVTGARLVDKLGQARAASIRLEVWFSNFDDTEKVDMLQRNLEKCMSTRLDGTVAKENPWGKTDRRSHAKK

eIF4E-1a = target: T2, eIF4E-1a (Amphidinium carterae, UniProt A0A0X9W7I2); experiment: SPR, Biacore T-200, steady state
T2 construct: N-terminal GST tag (TEV site), pGEX-4T(MCS)-TEV, E. coli Rosetta(DE3)pLysS, DTT treated, GST-fusion dimer by gel filtration; tag kept
T2 sequence (A0A0X9W7I2 1-233): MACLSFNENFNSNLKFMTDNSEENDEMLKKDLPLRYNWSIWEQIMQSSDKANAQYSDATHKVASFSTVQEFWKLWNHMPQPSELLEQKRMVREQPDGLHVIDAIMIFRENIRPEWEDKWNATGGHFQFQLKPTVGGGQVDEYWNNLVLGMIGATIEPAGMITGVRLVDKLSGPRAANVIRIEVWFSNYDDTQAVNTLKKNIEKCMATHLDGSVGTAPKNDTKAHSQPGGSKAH

eIF4E-2a = target: T3, eIF4E-2a (Amphidinium carterae, UniProt A0A109QBD6); experiment: SPR, Biacore T-200, steady state
T3 construct: N-terminal GST tag (TEV site), E. coli, GST-fusion dimer, tag kept
T3 sequence (A0A109QBD6 1-255): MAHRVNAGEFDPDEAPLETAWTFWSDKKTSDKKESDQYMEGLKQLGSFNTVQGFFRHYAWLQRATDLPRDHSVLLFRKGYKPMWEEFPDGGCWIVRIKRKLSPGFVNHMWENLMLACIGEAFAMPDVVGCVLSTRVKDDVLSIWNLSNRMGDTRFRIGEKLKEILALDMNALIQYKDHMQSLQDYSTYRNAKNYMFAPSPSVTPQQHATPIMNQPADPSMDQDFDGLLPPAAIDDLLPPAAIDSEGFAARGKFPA
Source text: SPR, Biacore T-200, steady state on eIF4E-2a

mouse eIF4E-1 [2] = target: T4, mouse eIF4E-1 (Mus musculus, UniProt P63073); experiment: SPR, Biacore T-200, steady state
T4 construct: N-terminal GST tag, E. coli, GST-fusion dimer, tag kept
T4 sequence (P63073 2-217): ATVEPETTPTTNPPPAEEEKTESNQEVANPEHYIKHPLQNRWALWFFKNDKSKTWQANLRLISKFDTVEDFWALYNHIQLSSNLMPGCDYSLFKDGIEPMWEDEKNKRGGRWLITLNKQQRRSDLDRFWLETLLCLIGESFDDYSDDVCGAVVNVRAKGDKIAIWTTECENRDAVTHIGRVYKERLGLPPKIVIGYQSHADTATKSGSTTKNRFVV

eIF4E-1c = target: T5, eIF4E-1c (Amphidinium carterae, UniProt A0A0X9VF44); experiment: cap-Sepharose pull-down of […] in vitro translated protein; details: ligand immobilised on Sepharose; S-tagged protein; 25 mM HEPES/KOH pH 7.2, 150 mM KCl, 200 μM GTP, 4 °C
T5 construct: N-terminal S-tag, pCITE-4a, in vitro transcription/translation in rabbit reticulocyte lysate, 35S-Met labelled
T5 sequence (A0A0X9VF44 1-244): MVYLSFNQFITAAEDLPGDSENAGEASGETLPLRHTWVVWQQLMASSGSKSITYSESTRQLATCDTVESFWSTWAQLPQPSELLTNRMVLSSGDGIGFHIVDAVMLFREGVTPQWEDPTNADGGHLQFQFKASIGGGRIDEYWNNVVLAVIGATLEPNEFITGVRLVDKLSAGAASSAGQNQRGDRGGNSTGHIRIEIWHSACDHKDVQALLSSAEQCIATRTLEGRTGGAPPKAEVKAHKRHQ

eIF4E-1d1 [3] = target: T1, eIF4E-1d1; experiment: as above; details: ligand immobilised on Sepharose; S-tagged protein; 25 mM HEPES/KOH pH 7.2, 150 mM KCl, 200 μM GTP, 4 °C
mouse eIF4E-1 [4] = target: T4, mouse eIF4E-1; experiment: SPR, Biacore T-200, kinetic fit
Source text: SPR, Biacore T-200, kinetic fit on mouse eIF4E-1

eIF4E-1d1 [5] = target: T1, eIF4E-1d1; experiment: SPR, Biacore T-200, kinetic fit
Source text: SPR, Biacore T-200, kinetic fit on eIF4E-1d1

| Kd (eIF4E-1d1 [1]) [µM] | Kd (eIF4E-1a) [µM] | Kd (eIF4E-2a) [µM] | Kd (mouse eIF4E-1 [2]) [µM] | Kd (mouse eIF4E-1 [4]) [µM] | Kd (eIF4E-1d1 [5]) [µM] | SMILES | cap-Sepharose pull-down of 35S in vitro translated protein (eIF4E-1c) | cap-Sepharose pull-down of 35S in vitro translated protein (eIF4E-1d1 [3]) |
| --- | --- | --- | --- | --- | --- | --- | --- | --- |
| 1010 ± 110 | 1730 ± 3700 | 665 ± 19 | 316 ± 38 | – | – | Nc1nc2c(ncn2[C@@H]2O[C@H](COP(=O)(O)OP(=O)(O)OP(=O)(O)OC[C@H]3O[C@@H](n4cnc5c(=O)[nH]c(N)nc54)[C@H](O)[C@@H]3O)[C@@H](O)[C@H]2O)c(=O)[nH]1 [GpppG] | – | – |
| – | – | – | – | – | – | CN(C)c1nc2c(c(=O)[nH]1)[n+](C)cn2[C@@H]1O[C@H](COP(=O)(O)OP(=O)(O)OP(=O)(O)O)[C@@H](O)[C@H]1O [TMG] | eIF4E-1c and eIF4E-1d1 showed some affinity for the TMG cap analogue | eIF4E-1c and eIF4E-1d1 showed some affinity for the TMG cap analogue |
| – | 10.8 ± 3.1 | – | – | 69.8 | 82.4 | C[n+]1cn([C@@H]2O[C@H](COP(=O)(O)OP(=O)(O)OP(=O)(O)OC[C@H]3O[C@@H](n4ccc(N)nc4=O)[C@H](O)[C@@H]3O)[C@@H](O)[C@H]2O)c2nc(N)[nH]c(=O)c21 [m^7GpppC] | – | – |
| 34.5 ± 18.6 | 17.5 ± 4.68 | 469 ± 220 | 59.7 ± 49.3 | – | – | C[n+]1cn([C@@H]2O[C@H](COP(=O)(O)OP(=O)(O)OP(=O)(O)OC[C@H]3O[C@@H](n4cnc5c(=O)[nH]c(N)nc54)[C@H](O)[C@@H]3O)[C@@H](O)[C@H]2O)c2nc(N)[nH]c(=O)c21 [m^7GpppG] | – | – |
